In patent US11046714B2, “2,2-difluorodioxolo A2A receptor antagonists” (Merck Sharp & Dohme Corp., priority 2013, dated 2021):

target: human A2A receptor (Homo sapiens (Human), UniProt P29274); experiment: competition binding assay using Scintillation Proximity technology; conditions: membranes from CHO-K1 cells expressing the human A2a receptor; 2.0 nM tritiated compound; Cheng-Prusoff
Description: The utility of the compounds in accordance with the present invention as A2A receptor antagonists may be readily determined without undue experimentation by methodologies well known in the art, including by a competition binding assay using Scintillation Proximity technology. Briefly, membranes from CHO-K1 cells expressing the human A2A receptor are incubated with a test compound at various concentrations, e.g., ranging from 3000 nM to 0.15 nM, in a reaction mixture also containing a tritiated form of 5-amino-7-[2-phenethyl]-2-(furan-2-yl)-7H-pyrazolo[4,3-e][1,2,4]triazolo[1,5-c]pyrimidine (the tritiated compound) and wheatgerm agglutin-coated yttrium silicate SPA beads at room temperature. The beads are then allowed to settle to the bottom of the wells, after which the membrane-associated radioactivity is determined by scintillation counting in a microplate reader. Ki values can be determined using the Cheng-Prusoff equation.
Thus, 1.0 μg of membranes from CHO-K1 cells expressing the human A2a receptor were incubated with a compound of the invention at concentrations ranging from 3000 nM to 0.15 nM in a reaction mixture also containing 2.0 nM of a tritiated form of 5-amino-7-[2-phenethyl]-2-(furan-2-yl)-7H-pyrazolo[4,3-e][1,2,4]triazolo[1,5-c]pyrimidine (the tritiated compound) and 100 μg of wheatgerm agglutin-coated yttrium silicate SPA beads for one hour at room temperature with agitation. The beads were then allowed to settle to the bottom of the wells for 1 hr, after which the membrane-associated radioactivity was determined by scintillation counting in a TopCount microplate reader. Ki values were determined using the Cheng-Prusoff equation.
Summary of Materials and Methods Used in A2a Activity Determination:
• Membranes from CHO-K1 cells expressing the human Adenosine2A receptor (Perkin-Elmer #RBHA2AM400UA). • The tritiated compound was prepared according to published methods. • Wheatgerm agglutinin-coated yttrium silicate SPA beads (GE Healthcare #RPNQ0023). Dilute to 25 mg/ml in Assay Buffer. • Assay Buffer: Dulbecco's calcium and magnesium free phosphate buffered saline+10 mM MgCl2 • Adenosine deaminase (ADA) from calf intestine, 10 mg/2 ml (Roche #10 102 105 001). • DMSO • A2a antagonist standard (9-chloro-1-(2-furanyl)-[1,2,4]triazolo[1,5-c]quinazolin-5-amine from Tocris Bioscience) Compound Dilution • Make eight 1:3 serial dilutions in 100% DMSO from a 3 mM compound stock. • Transfer 50 nL of compound into a 384-well OptiPlate (Perkin Elmer). • Typically, final concentrations of compound used in the assay ranged from 3000 nM to 0.152 nM. Radioisotope • Dilute a solution of the tritiated compound to 5.0 nM in assay buffer. This is a 2.5× solution. The final concentration in the assay is 2.0 nM. Calculate the concentration by counting two 5 μL aliquots. Membrane Preparation • Use 1.0 μg of membrane/well. Dilute membranes to 33 μg/mL in assay buffer. Treat with 20 μg/mL ADA for 15 minutes at room temperature to degrade endogenous adenosine. Membrane-Bead Mixture • Use 100 μg/well wheatgerm agglutinin-coated yttrium silicate SPA beads. • Mix ADA-treated membranes and SPA beads together for 30 min prior to assay. Assay Assembly • To the Perkin-Elmer Optiplate-384 containing the compound titration add 20 μL of 2.5× solution of the tritiated compound and 30 μL of the membrane-bead mixture. Incubate for one hour at room temperature with agitation. • Include total binding (assay buffer+1% DMSO) and non-specific binding (CGS 15943, 1 μM) wells. Counting • Allow the beads to settle for one hour. • Count in TopCount. Calculations • A curve fitting program (i.e., Prism, Activity Base, Chemcart) is used to determine the EC50. The Ki value is calculated using the Cheng-Prusoff equation. Ki=EC50/(1+(radioligand concentration/Kd))

Sequence of human A2A receptor (P29274 whole entry): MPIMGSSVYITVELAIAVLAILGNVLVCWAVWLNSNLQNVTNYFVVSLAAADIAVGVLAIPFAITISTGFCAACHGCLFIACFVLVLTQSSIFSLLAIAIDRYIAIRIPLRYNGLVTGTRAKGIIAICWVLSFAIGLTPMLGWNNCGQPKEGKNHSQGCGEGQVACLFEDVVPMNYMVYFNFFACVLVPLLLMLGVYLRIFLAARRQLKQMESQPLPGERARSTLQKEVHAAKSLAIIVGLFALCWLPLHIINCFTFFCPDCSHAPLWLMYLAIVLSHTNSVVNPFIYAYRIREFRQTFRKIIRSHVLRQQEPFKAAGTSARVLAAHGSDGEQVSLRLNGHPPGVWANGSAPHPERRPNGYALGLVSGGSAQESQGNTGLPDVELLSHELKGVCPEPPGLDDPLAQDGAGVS

Row | Compound | Ki [nM]
1 | Cc1nc2c3ccc4c(c3nc(N)n2n1)OC(F)(F)O4 [Example 2, 2,2-difluoro-8-methyl-[1,3]dioxolo[4,5-h][1,2,4]triazolo[1,5-c]quinazolin-5-amine] | 6.2
2 | Nc1nc2c3c(ccc2c2nc(Cc4cccnc4Cl)nn12)OC(F)(F)O3 [Example 3, 8-((2-chloropyridin-3-yl)methyl)-2,2-difluoro-[1,3]dioxolo[4,5-h][1,2,4]triazolo[1,5-c]quinazolin-5-amine] | 2.9
3 | Nc1nc2c3c(ccc2c2nc(Cc4cccnc4N4CC[C@@H](c5ccc(F)cc5)C4)nn12)OC(F)(F)O3 [Example 4, (S)-2,2-difluoro-8-((2-(3-(4-fluorophenyl)pyrrolidin-1-yl)pyridin-3-yl)methyl)-[1,3]dioxolo[4,5-h][1,2,4]triazolo[1,5-c]quinazolin-5-amine] | 8.3
4 | Nc1nc2c3c(ccc2c2nc(Cc4cccnc4N4CC[C@@H](c5ccc(C(F)(F)F)cc5)C4)nn12)OC(F)(F)O3 [Example 5, (S)-2,2-difluoro-8-((2-(3-(4-(trifluoromethyl)phenyl)pyrrolidin-1-yl)pyridin-3-yl)methyl)-[1,3]dioxolo[4,5-h][1,2,4]triazolo[1,5-c]quinazolin-5-amine] | 15
5 | Nc1nc2c3c(ccc2c2nc(CCN4Cc5cccnc5C4)nn12)OC(F)(F)O3 [Example 6] | 6.5
6 | Nc1nc2c3c(ccc2c2nc(CCN4Cc5ccc(C(F)(F)F)cc5C4)nn12)OC(F)(F)O3 [Example 7, 2,2-difluoro-8-{2-[5-(trifluoromethyl)-1,3-dihydro-2H-isoindol-2-yl]ethyl}[1,3]-dioxolo[4,5-h][1,2,4]triazolo [1,5-c]quinazolin-5-amine] | 3.1
7 | Nc1nc2c3c(ccc2c2nc(CCN4Cc5cnc(C(F)(F)F)nc5C4)nn12)OC(F)(F)O3 [Example 9, 2,2-difluoro-8-{2-[2-(trifluoromethyl)-5,7-dihydro-6H-pyrrolo[3,4-d]pyrimidin-6-yl]ethyl}[1,3]dioxolo[4,5-h][1,2,4]triazolo[1,5-c]quinazolin-5-amine] | 3.8
8 | Nc1nc2c3c(ccc2c2nc(CCN4CC(F)C4)nn12)OC(F)(F)O3 [Example 15, 2,2-difluoro-8-[2-(3-fluoroazetidin-1-yl)ethyl] [1,3]dioxolo[4,5-h][1,2,4] triazolo[1,5-c]quinazolin-5-amine] | 2.5
9 | CC1(F)CN(CCc2nc3c4ccc5c(c4nc(N)n3n2)OC(F)(F)O5)C1 [Example 16, 2,2-difluoro-8-[2-(3-fluoro-3-methylazetidin-1-yl)ethyl] [1,3]dioxolo[4,5-h][1,2,4] triazolo[1,5-c]quinazolin-5-amine] | 3.2
10 | CCC1(F)CN(CCc2nc3c4ccc5c(c4nc(N)n3n2)OC(F)(F)O5)C1 [Example 17, 8-[2-(3-ethyl-3-fluoroazetidin-1-yl)ethyl]-2,2-difluoro[1,3] dioxolo[4,5-h][1,2,4]triazolo [1,5-c]quinazolin-5-amine] | 3.5
11 | Nc1nc2c3c(ccc2c2nc(CCN4CC(F)(F)C4)nn12)OC(F)(F)O3 [Example 19, 8-[2-(3,3-difluoroazetidin-1-yl)ethyl]-2,2-difluoro[1,3] dioxolo[4,5-h][1,2,4]triazolo [1,5-c]quinazolin-5-amine] | 3
12 | Nc1nc2c3c(ccc2c2nc(CCN4CC(O)(C(F)(F)F)C4)nn12)OC(F)(F)O3 [Example 20, 1-[2-(5-amino-2,2-difluoro [1,3]diozolo[4,5-h][1,2,4]triazolo[1,5-c]quinazolin-8-yl)ethyl]-3-(trifluoromethyl) azetidin-3-ol] | 12
13 | Nc1nc2c3c(ccc2c2nc(CCN4CC(F)(C(F)(F)F)C4)nn12)OC(F)(F)O3 [Example 21, 2,2-difluoro-8-{2-[3-fluoro-3-(trifluoromethyl)azetidin-1-yl]ethyl}[1,3]dioxolo[4,5-h][1,2,4]triazolo[1,5-c]quinazolin-5-amine] | 3.4
14 | C[C@H]1CC(F)(F)CN1CCc1nc2c3ccc4c(c3nc(N)n2n1)OC(F)(F)O4 [Example 26, 8-{2-[(2S)-4,4-difluoro-2-methylpyrrolidin-1-yl]ethyl}-2,2-difluoro[1,3]dioxolo[4,5-h][1,2,4]triazolo[1,5-c]quinazolin-5-amine] | 3

Compounds with a lower Ki, results first:

Row | Ki [nM] | Compound
15 | 2.1 | Nc1nc2c3c(ccc2c2nc(CCN4Cc5ccc(F)cc5C4)nn12)OC(F)(F)O3 [Example 8, 2,2-difluoro-8-[2-(5-fluoro-1,3-dihydro-2H-isoindol-2-yl)ethyl][1,3]dioxolo[4,5-h][1,2,4]triazolo[1,5-c]quinazolin-5-amine]
16 | 2.1 | Nc1nc2c3c(ccc2c2nc(CCN4Cc5ccncc5C4)nn12)OC(F)(F)O3 [Example 11, 8-[2-(1,3-dihydro-2H-pyrrolo[3,4-c]pyridin-2-yl)ethyl]-2,2-difluoro[1,3] dioxolo[4,5-h][1,2,4]triazolo [1,5-c]quinazolin-5-amine]
17 | 1.8 | Cc1nc2c(s1)CCN(CCc1nc3c4ccc5c(c4nc(N)n3n1)OC(F)(F)O5)C2 [Example 13, 2,2-difluoro-8-[2-(2-methyl-6,7-dihydro[1,3]thiazolo[4,5-c]pyridin-5(4H)-yl)ethyl][1,3] dioxolo[4,5-h][1,2,4]triazolo [1,5-c]quinazolin-5-amine]
18 | 1.6 | CCc1nnc2n1CCN(CCc1nc3c4ccc5c(c4nc(N)n3n1)OC(F)(F)O5)C2 [Example 10, 8-[2-(3-ethyl-5,6-dihydro[1,2,4]triazolo[4,3-a]pyrazin-7(8H)-yl)ethyl]-2,2-difluoro[1,3]dioxolo[4,5-h][1,2,4]triazolo[1,5-c]quinazolin-5-amine]
19 | 1.6 | Nc1nc2c3c(ccc2c2nc(CCN4CC(F)(C5CC5)C4)nn12)OC(F)(F)O3 [Example 18, 8-[2-(3-cyclopropyl-3-fluoroazetidin-1-yl)ethyl]-2,2-difluoro[1,3]dioxolo[4,5-h][1,2,4]triazolo[1,5-c]quinazolin-5-amine]
20 | 1.6 | Nc1nc2c3c(ccc2c2nc(CCN4C[C@H](F)[C@@H](F)C4)nn12)OC(F)(F)O3 [Example 23, 8-{2-[(3S,4S)-3,4-difluoropyrrolidin-1-yl]ethyl}-2,2-difluoro[1,3]dioxolo[4,5-h][1,2,4]triazolo[1,5-c]quinazolin-5-amine]
21 | 1.5 | Cc1nc2c(o1)CN(CCc1nc3c4ccc5c(c4nc(N)n3n1)OC(F)(F)O5)CC2 [Example 12, 2,2-difluoro-8-[2-(2-methyl-6,7-dihydro[1,3]oxazolo[5,4-c]pyridin-5(4H)-yl)ethyl][1,3] dioxolo[4,5-h][1,2,4]triazolo [1,5-c]quinazolin-5-amine]
22 | 1.5 | C[C@@H]1C[C@H](F)CN1CCc1nc2c3ccc4c(c3nc(N)n2n1)OC(F)(F)O4 [Example 22, 2,2-difluoro-8-{2-[(2R,4S)-4-fluoro-2-methylpyrrolidin-1-yl]ethyl}[1,3]dioxolo[4,5-h][1,2,4]triazolo[1,5-c]quinazolin-5-amine]
23 | 1.4 | Nc1nc2c3c(ccc2c2nc(CCN4CCC(F)(F)C4)nn12)OC(F)(F)O3 [Example 24, 8-[2-(3,3-difluoropyrrolidin-1-yl)ethyl]-2,2-difluoro[1,3] dioxolo[4,5-h][1,2,4]triazolo [1,5-c]quinazolin-5-amine]
24 | 1.1 | C[C@@H]1CC(F)(F)CN1CCc1nc2c3ccc4c(c3nc(N)n2n1)OC(F)(F)O4 [Example 25]
25 | 0.9 | Nc1nc2c3c(ccc2c2nc(CCN4CCc5nc(C6CC6)oc5C4)nn12)OC(F)(F)O3 [Example 14, 8-[2-(2-cyclopropyl-6,7-dihydro[1,3]oxazolo[5,4-c]pyridin-5(4H)-yl)ethyl]-2,2-difluoro[1,3]dioxolo[4,5-h][1,2,4]triazolo[1,5-c]quinazolin-5-amine]
